Consider 1 molecule from US20180296531A1, “STIMULATION OF 11B-HSD2 EXPRESSION TO IMPROVE HORMONAL THERAPY OF STEROID-DEPENDENT DISEASE” (THE CLEVELAND CLINIC FOUNDATION, priority 2015, published 2018).

Assay [1] concerns 11β-HSD1 protein. The experiment in a line: Immunoblot of 11β-HSD1 protein in prostate cancer cell lines. Format: cell-based, human. The settings on record: AR-expressing prostate cancer cell lines. Here is the method:
For protein analysis, immunoblots were performed as described previously. Li et al., J Clin Endocrinol Metab 98, E1189-1197 (2013). Briefly, total cellular protein was extracted with ice cold RIPA lysis buffer (Sigma-Aldrich) containing protease inhibitors (Roche). 30-50 μg protein was separated by 8% SDS-PAGE gel and then transferred to a nitrocellulose membrane (Millipore). After incubating with the anti-11β-HSD2 antibody (Santa Cruz; 1:3000), anti-11β-HSD1 antibody (Santa Cruz; 1:1000), GR antibody (BD Biosciences; 1:1000), anti-Erlin-2 antibody (Cell Signaling Technology: 1:1000) or anti-AMFR antibody (Proteintech; 1:1000) overnight at 4° C., the appropriate secondary antibody was incubated for 1 hour at room temperature. The chemiluminescent detection system (Thermo Scientific) was used to detect the bands with peroxidase activity. An anti-β-actin antibody (Sigma-Aldrich; 1:5000) was used as a control for sample loading.
On the technique in general: A western blot detects proteins with antibodies after separation by electrophoresis.

In assay [2] the target is T1, 11β-HSD2 (Homo sapiens, UniProt P80365).
T1 construct: FLAG; expressed in transfected cells; host or cells: LAPC4
T1 sequence (P80365 1-405): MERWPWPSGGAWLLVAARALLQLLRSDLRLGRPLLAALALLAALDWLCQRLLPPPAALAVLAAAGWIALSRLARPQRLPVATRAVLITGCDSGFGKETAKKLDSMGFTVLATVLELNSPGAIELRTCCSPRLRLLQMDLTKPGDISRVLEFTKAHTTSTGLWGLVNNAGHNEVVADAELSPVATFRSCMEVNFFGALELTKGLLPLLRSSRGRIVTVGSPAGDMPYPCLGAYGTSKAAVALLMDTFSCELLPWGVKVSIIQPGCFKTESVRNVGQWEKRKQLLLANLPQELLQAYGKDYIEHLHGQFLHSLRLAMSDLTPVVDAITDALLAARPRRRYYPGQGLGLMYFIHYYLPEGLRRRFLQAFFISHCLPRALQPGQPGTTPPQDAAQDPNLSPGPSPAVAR
The assay can be described thus: Direct 11β-HSD2 antagonism: cortisol to cortisone conversion in LAPC4 cells transfected with 11β-HSD2 vector. Format: cell-based. Particulars: LAPC4 transfected with 11β-HSD2 vector, [3H]-cortisol 100 nM. Here is the method: Gene expression. The day before transfection, LAPC4 cells were plated into 12 well plates coated with poly-DL-ornithine (˜7×10^5 cells/well). On the day of transfections, an Erlin-2 expressing plasmid, Erlin-2-Myc-DDK-tagged (OriGene) or 11β-HSD2-expressing plasmid FCIV1-11β-HSD2-FLAG was introduced into the cells with Lipofectamine® 3000 Reagent (Life Technology). After 48 hours, the cells were collected and used for the detection of 11β-HSD2 and Erlin-2 by immunoblot, or treated with Enz for 24 hours to determine the effects on cortisol metabolism by HPLC as described herein.

In assay [3] the test system is LAPC4 human prostate cancer cell line. The assay can be described thus: Cell line cortisol metabolism: conversion of [3H]-cortisol to cortisone, HPLC.

On to `CNC(=O)c1ccc(N2C(=S)N(c3ccc(C#N)c(C(F)(F)F)c3)C(=O)C2(C)C)cc1F` [enzalutamide], for which the 11β-HSD1 protein result in assay [1] was “no consistent effect on 11β-HSD1 was detectable”. Besides, in assay [2], the “direct 11β-HSD2 antagonism” value was “no direct 11β-HSD2 antagonism”. In addition, the “cortisol levels / conversion of [3H]-cortisol to cortisone” value in assay [3] (long enzalutamide exposure (36 days), LAPC4, cells and media) was “sustains cortisol levels by retarding conversion to cortisone in cells and media”. In addition, in assay [3] (short term Enz treatment (24 hours), LAPC4), the cortisol metabolism result is reported as “does not affect cortisol metabolism”.
